These results are taken from publication PMC3631439 (ACS chemical biology, 2013).

Entries after “also recorded” stand apart in the source; their conditions may differ. Where two headings read alike, the source gives them in different places.

One experiment deals with T1, human YFP-PKCε (Homo sapiens, UniProt Q02156).
T1 sequence (Q02156 1-737): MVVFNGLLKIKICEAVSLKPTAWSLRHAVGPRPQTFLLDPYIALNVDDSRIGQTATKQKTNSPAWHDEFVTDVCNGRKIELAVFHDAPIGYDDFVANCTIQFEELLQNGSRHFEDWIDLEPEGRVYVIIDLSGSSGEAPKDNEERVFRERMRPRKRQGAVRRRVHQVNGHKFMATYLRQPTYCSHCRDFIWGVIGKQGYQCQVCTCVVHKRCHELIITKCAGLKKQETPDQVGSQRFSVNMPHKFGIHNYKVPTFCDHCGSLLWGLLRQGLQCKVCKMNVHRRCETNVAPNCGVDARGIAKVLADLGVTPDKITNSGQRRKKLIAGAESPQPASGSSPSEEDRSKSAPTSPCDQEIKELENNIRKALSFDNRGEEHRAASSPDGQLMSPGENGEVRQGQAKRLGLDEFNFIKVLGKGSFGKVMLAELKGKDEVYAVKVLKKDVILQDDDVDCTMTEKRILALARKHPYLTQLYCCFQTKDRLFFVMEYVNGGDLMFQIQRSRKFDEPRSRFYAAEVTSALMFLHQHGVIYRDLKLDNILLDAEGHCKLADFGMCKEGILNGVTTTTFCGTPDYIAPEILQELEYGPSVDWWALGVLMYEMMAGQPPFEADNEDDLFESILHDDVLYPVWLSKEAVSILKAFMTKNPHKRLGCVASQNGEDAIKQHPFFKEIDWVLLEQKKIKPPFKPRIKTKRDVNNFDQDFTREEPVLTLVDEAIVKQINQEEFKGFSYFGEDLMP
Kind of experiment: Translocation of human YFP-PKCε in LNCaP cells. Format: cell-based.

Experiment [1] has as its system LNCaP human prostate cancer cells. Nature of the experiment: Proliferation of LNCaP cells. The conditions noted are these: for inhibition of proliferation of LNCaP cells: 36 h; for block of inhibition of proliferation by PMA: PMA 30 nM co-administered.
In experiment [2] the test system is U937 leukemia cells. Format: cell-based, human. As to conditions: 60 hours; for cell attachment: U937 cells; for inhibition of attachment induced by PMA: co-administered with PMA.
A further experiment deals with Mouse PKC α (Mus musculus, UniProt P20444). Kind of experiment: biochemical. It counts as binding.
The next experiment concerns the target T2, PKCε (Homo sapiens, UniProt Q02156).
T2 sequence (Q02156 1-737): T1 sequence (Q02156 1-737)
Nature of the experiment: Down regulation of PKCε in U937 cells. It counts as cell-based. The conditions noted are these: data not shown.

The target of a further experiment is mouse GFP-PKCδ (Mus musculus, UniProt P28867). Kind of experiment: Translocation of mouse GFP-PKCδ in LNCaP cells. It counts as cell-based. As to conditions: 1000 nM PMA, 1000 nM bryostatin 1, 3000 nM bryostatin 7.
Experiment [3] deals with phorbol ester responsive genes in LNCaP cells. Kind of experiment: Gene induction in LNCaP cells. Format: cell-based, human. As to conditions: 6 hours, 1000 nM.
In experiment [4] the test system is PKC signaling in LNCaP cells. Kind of experiment: PKC and downstream signaling in LNCaP cells. The conditions noted are these: 60 min. It counts as cell-based, human.
A further experiment deals with PKCδ (Homo sapiens, UniProt Q05655). Nature of the experiment: Down regulation of PKCδ in U937 cells. It counts as cell-based.
In another experiment the target is human GFP-PKCδ (Homo sapiens, UniProt Q05655). Kind of experiment: Translocation of human GFP-PKCδ in LNCaP cells. Format: cell-based. The conditions noted are these: 1000 nM PMA, 1000 nM bryostatin 1, 3000 nM bryostatin 7.
In experiment [5] the test system is TNFα secretion in LNCaP cells. Kind of experiment: TNFα secretion by LNCaP cells. As to conditions: for inhibition of secretion of TNFα induced by PMA: 30 nM PMA; for secretion of TNFα: 24 h.
A further experiment concerns the target human GFP-PKCα (Homo sapiens, UniProt P17252). Nature of the experiment: Translocation of human GFP-PKCα in CHO cells. Format: cell-based.
Another experiment concerns U937 cells. Format: cell-based, human. As to conditions: araC 1 μM, 24 h; bryostatin 1 100 nM, bryostatin 7 1000 nM.
Experiment [6] concerns U937 leukemia cells. Format: cell-based, human. The conditions noted are these: 60 hours; for suppression of growth inhibition induced by PMA: co-administered with PMA.
The next experiment addresses PKCβII (Homo sapiens, UniProt P05771). Nature of the experiment: Down regulation of PKCβII in U937 cells. It counts as cell-based.
The next experiment relates to tumor promotion. The conditions noted are these: cited from earlier work.
For experiment [7], the system named is human PKC isoforms α, βII, δ, and ε.
In experiment [8] the test system is PKC isoforms and PKD1 in LNCaP cells. Nature of the experiment: Subcellular fractionation of LNCaP cells. Format: cell-based, human. As to conditions: 60 min.
Another experiment concerns PKC. As to conditions: cited from earlier work.
Another experiment has as its system human platelets. As to conditions: cited from earlier work.
The subject of experiment [9] is TNFα secretion in U937 cells. Nature of the experiment: TNF-alpha secretion by U937 cells. Format: cell-based, human.
The mark [10] stands for this setting: read-out: EC50 for down regulation of PKCβII, 24 hours.

Sequence of PKCβII (P05771 1-673 isoform P05771-2): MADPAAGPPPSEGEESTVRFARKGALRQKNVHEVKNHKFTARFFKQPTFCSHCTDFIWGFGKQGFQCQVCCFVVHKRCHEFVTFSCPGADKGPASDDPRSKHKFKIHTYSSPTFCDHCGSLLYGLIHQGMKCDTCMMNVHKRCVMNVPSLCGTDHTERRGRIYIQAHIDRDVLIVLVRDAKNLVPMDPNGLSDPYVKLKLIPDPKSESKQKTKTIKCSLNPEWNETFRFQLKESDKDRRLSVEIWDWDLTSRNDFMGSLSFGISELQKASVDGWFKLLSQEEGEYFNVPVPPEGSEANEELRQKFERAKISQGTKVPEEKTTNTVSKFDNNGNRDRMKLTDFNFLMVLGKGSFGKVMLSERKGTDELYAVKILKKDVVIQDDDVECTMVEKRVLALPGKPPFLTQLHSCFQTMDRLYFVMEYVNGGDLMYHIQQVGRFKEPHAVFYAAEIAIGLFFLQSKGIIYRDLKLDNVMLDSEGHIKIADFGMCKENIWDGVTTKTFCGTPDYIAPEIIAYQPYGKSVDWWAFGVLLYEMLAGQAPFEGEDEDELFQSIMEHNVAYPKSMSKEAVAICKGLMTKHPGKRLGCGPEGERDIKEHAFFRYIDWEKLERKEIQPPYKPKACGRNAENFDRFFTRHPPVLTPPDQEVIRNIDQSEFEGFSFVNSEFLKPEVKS
Sequence of PKCδ (Q05655 whole entry): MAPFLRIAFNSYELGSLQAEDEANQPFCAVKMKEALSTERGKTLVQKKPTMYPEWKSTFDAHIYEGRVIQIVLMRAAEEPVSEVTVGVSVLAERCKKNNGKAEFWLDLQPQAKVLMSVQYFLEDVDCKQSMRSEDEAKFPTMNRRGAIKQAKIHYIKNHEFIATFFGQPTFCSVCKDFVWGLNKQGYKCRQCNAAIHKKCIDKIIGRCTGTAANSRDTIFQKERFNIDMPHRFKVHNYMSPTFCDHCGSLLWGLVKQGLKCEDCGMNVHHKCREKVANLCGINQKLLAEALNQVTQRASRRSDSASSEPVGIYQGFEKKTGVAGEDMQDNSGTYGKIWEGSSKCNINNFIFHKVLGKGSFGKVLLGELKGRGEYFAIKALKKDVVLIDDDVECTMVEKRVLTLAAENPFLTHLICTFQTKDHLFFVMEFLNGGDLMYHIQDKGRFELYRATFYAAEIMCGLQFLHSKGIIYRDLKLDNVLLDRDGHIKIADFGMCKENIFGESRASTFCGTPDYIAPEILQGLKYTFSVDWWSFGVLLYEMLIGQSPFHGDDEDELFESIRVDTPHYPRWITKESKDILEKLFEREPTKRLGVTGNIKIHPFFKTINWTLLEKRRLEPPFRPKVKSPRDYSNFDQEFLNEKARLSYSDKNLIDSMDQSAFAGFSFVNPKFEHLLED
Sequence of mouse GFP-PKCδ (P28867 whole entry): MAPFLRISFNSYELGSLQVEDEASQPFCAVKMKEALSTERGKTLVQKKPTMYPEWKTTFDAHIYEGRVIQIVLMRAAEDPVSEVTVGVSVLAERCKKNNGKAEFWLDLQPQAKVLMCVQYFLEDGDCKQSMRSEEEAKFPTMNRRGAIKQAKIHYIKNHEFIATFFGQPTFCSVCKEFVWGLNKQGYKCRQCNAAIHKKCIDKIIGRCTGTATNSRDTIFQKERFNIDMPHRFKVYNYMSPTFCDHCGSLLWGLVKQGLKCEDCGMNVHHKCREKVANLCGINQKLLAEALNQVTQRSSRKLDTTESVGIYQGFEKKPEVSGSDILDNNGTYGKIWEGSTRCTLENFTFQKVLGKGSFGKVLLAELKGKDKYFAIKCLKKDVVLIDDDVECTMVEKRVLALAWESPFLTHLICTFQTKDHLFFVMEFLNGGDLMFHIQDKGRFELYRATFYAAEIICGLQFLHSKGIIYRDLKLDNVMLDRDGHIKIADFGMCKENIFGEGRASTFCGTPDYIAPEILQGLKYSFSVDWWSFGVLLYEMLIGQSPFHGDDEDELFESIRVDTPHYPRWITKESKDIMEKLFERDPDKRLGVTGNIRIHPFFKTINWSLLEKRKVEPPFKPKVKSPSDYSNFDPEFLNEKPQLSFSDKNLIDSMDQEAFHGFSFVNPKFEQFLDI
Sequence of human GFP-PKCδ (Q05655 whole entry): as the sequence (Q05655 whole entry) above

On to `CCC/C=C/C=C/C(=O)O[C@H]1/C(=C/C(=O)OC)C[C@H]2C[C@H]([C@@H](C)O)OC(=O)C[C@H](O)C[C@@H]3C[C@H](OC(C)=O)C(C)(C)[C@](O)(C[C@@H]4C/C(=C/C(=O)OC)C[C@H](/C=C/C(C)(C)[C@]1(O)O2)O4)O3` [Bryostatin 1, bryostatin 1], for which the “translocation pattern of human YFP-PKCε” value at human YFP-PKCε (LNCaP cells, 1000 nM) is recorded as “resembled that with PMA, albeit less extensive”. Also, in [1], the “inhibition of proliferation of LNCaP cells” value (from here on “inhibition … of LNCaP cells”) is “little inhibitory effect” and the “block of inhibition of proliferation by PMA” value is recorded as “prevents the inhibition by PMA”. In the experiment on U937 leukemia cells [2], the cell attachment entry was “much reduced level of cell attachment compared to that induced by PMA” and the “inhibition of attachment induced by PMA” value is “able to inhibit the attachment induced by PMA”. At Mouse PKC α, this molecule showed a Ki of 0.48 ± 0.03 nM. Moreover, the “down regulation of PKCε” value on PKCε is “little down regulation”. For the same molecule, at mouse GFP-PKCδ, the “translocation pattern of mouse GFP-PKCδ” value was “only to the nuclear membrane and internal membranes”. In addition, the “changes in levels of mRNA expression” value in experiment [3] is “generally similar for bryostatin 1 and bryostatin 7 and less than they were for PMA”. For the same molecule, in experiment [4], the “PKCδ phosphorylation on Y311” value is on record as “inability to induce efficient PKCδ phosphorylation on Y311” and the “induction of PKCδ phosphorylation at S299” value was “closely similar”. Also, on PKCδ (24 hours), the “down regulation of PKCδ” value is “down regulation with a biphasic dose response curve”. The “translocation pattern of human GFP-PKCδ” value on human GFP-PKCδ is recorded as “some initial plasma membrane translocation”. In addition, in experiment [5], the “inhibition of secretion of TNFα induced by PMA” value is listed as “inhibits the secretion of TNFα induced by PMA” and the “secretion of TNFα” value is “minimal secretion of TNFα”. Also, the “translocation pattern of human GFP-PKCα” value on human GFP-PKCα (CHO cells, 1000 nM) is recorded as “some translocation of the human PKCα to the plasma membrane but with most forming a thick ring around the nucleus”. Also, the “synergy with araC for loss of mitochondrial membrane potential” value in the experiment on U937 cells is on record as “able to synergize with araC”. Besides, in the experiment with U937 leukemia cells [6], the “inhibition of U937 cell proliferation” value was “very limited, biphasic inhibition” and the “suppression of growth inhibition induced by PMA” value was “able to suppress the growth inhibition induced by PMA”. Also, the DC50 on PKCβII (setting [10]) was 0.31 ± 0.005 nM.
On to `CC(C)[C@H]1C(=O)N[C@H](CO)Cc2c[nH]c3cccc(c23)N1C` [indolactam V], for which the tumor promoting activity result in the experiment on tumor promotion is given as “tumor promoters”.
Take `COC(=O)/C=C1/C[C@H]2C[C@]3(O)O[C@H](C[C@@H](O)CC(=O)O[C@@H]([C@@H](C)O)C[C@@H]4C/C(=C\C(=O)OC)[C@H](OC(C)=O)[C@@](O)(O4)C(C)(C)/C=C/[C@@H](C1)O2)C[C@H](OC(C)=O)C3(C)C` [Bryostatin 7, bryostatin 7]: the “translocation pattern of human YFP-PKCε” value on human YFP-PKCε is reported as “no plasma membrane translocation”. Moreover, in [1], the “inhibition … of LNCaP cells” value is given as “fails to inhibit proliferation” and the “block of inhibition of proliferation by PMA” value is recorded as “able to block the inhibition of proliferation by PMA”. The “selectivity among PKC isoforms” value in [7] is listed as “little selectivity among these PKC isoforms”. For the same molecule, in the experiment on U937 leukemia cells [2], the cell attachment result is “much reduced level of cell attachment compared to that induced by PMA; also recorded: induced slightly more attachment than did bryostatin 1” and the “inhibition of attachment induced by PMA” value was “able to inhibit the attachment induced by PMA”. Besides, the Ki on Mouse PKC α stood at 0.26 ± 0.06 nM. Further, at mouse GFP-PKCδ, the “translocation pattern of mouse GFP-PKCδ” value is “only to the nuclear membrane and internal membranes”. In addition, the “changes in levels of mRNA expression” value in experiment [3] was “generally similar for bryostatin 1 and bryostatin 7 and less than they were for PMA”. Also, in experiment [4], the “PKCδ phosphorylation on Y311” value is recorded as “inability to induce efficient PKCδ phosphorylation on Y311”, the “induction of PKCδ phosphorylation at S299” value is “closely similar”, the “induction of cFos or EGR1” value is reported as “reduced induction of cFos or EGR1 at 60 min compared to bryostatin 1” and the “phosphorylation of PKD1” value is “somewhat less phosphorylation of PKD1 than did bryostatin 1”. Besides, on PKCδ (24 hours), the “down regulation of PKCδ” value is “resembled bryostatin 1” and the “potency for PKCδ down regulation, fold weaker than bryostatin 1” value is given as “approximately 3 fold”. Besides, the EC50 on PKCδ (read-out: EC50 for down regulation of PKCδ, 24 hours) came out at 0.22 ± 0.03 nM. In addition, at human GFP-PKCδ, the “translocation pattern of human GFP-PKCδ” value is “only caused translocation of the human GFP-PKCδ to nuclear and internal membranes”. In addition, in experiment [8], the “PKCδ in the nuclear enriched fraction” value is reported as “resembled bryostatin 1 for this response” and the “pPKD1 in the nuclear fraction” value is “behaved similarly to bryostatin 1”. Also, the “binding affinity towards PKC among bryostatins” value with PKC was “highest binding affinity towards PKC”. For the same molecule, in experiment [5], the “inhibition of secretion of TNFα induced by PMA” value was “inhibits the secretion of TNFα induced by PMA” and the “secretion of TNFα” value was “minimal secretion of TNFα”. For the same molecule, the “translocation pattern of human GFP-PKCα” value at human GFP-PKCα was “pattern of translocation similar to that of bryostatin 1”. Also, the “synergy with araC for loss of mitochondrial membrane potential” value with U937 cells was “able to synergize with araC”. In the experiment on U937 leukemia cells [6], the “inhibition of U937 cell proliferation” value is given as “very limited, biphasic inhibition; also recorded: inhibited proliferation slightly more than did bryostatin 1” and the “suppression of growth inhibition induced by PMA” value is reported as “able to suppress the growth inhibition induced by PMA”. In addition, the “aggregation of human platelets” value in the experiment with human platelets is “mimics the activity of the phorbol ester PMA in inducing aggregation of human platelets”. Further, the “potency for PKCβII down regulation, fold weaker than bryostatin 1” value at PKCβII (24 hours) is recorded as 3 fold. The EC50 at PKCβII (setting [10]) is 0.97 ± 0.08 nM.
With `CCCCCCCCCCCCCC(=O)O[C@@H]1[C@@H](C)[C@@]2(O)[C@@H](C=C(CO)C[C@]3(O)C(=O)C(C)=C[C@@H]23)[C@@H]2C(C)(C)[C@]12OC(C)=O` [PMA], at human YFP-PKCε (LNCaP cells, 1000 nM), the “translocation pattern of human YFP-PKCε” value is “rapid clearing of the cytoplasm with translocation of PKCε to the plasma membrane”. Further, in experiment [1], the “inhibition … of LNCaP cells” value was “inhibits cellular proliferation”. Also, the tumor promoting activity entry in the experiment on tumor promotion is “tumor promoter”. In addition, the “down regulation of PKCε” value on PKCε is reported as “little down regulation”. Besides, the “translocation pattern of mouse GFP-PKCδ” value at mouse GFP-PKCδ is reported as “initial translocation to the plasma membrane”. Also, the TNFα secretion result in [9] is listed as “higher level of secretion”. The “down regulation of PKCδ” value on PKCδ (24 hours) is recorded as “little down regulation”. Further, in [8], the “PKCδ in the nuclear enriched fraction” value is “increase in PKCδ in the nuclear enriched fraction” and the “pPKD1 in the nuclear fraction” value is “substantial accumulation in the nuclear fraction”. On human GFP-PKCα (CHO cells, 1000 nM), the “translocation pattern of human GFP-PKCα” value is reported as “slow but clear plasma membrane translocation”. The “level of down regulation of PKCβII” value at PKCβII (24 hours) is “less down regulation”.
In the case of `CC(=O)O[C@@]12C[C@@H](C)[C@@]3(O)[C@@H](C=C(CO)C[C@]4(O)C(=O)C(C)=C[C@@H]34)[C@@H]1C2(C)C` [prostratin], the tumor promoting activity entry in the experiment on tumor promotion is on record as “inhibits tumor promotion”.

As a reminder, the Ki is a dissociation constant, usually derived from enzyme kinetics or from competition with a known ligand. Low readings indicate a stronger hold on the target, high ones a looser hold on the target. As a reminder, the EC50 is the concentration that produces a half-maximal response.
